# Test results published in patent publication US20230040770A1, “HETEROCYCLIC COMPOUND AND USE THEREOF” (TAKEDA PHARMACEUTICAL COMPANY LIMITED, priority 2019, published 2023).
# Molecular target: T1, human orexin type 2 receptor (Homo sapiens, UniProt O43614)
# T1 construct: expressed in transfected cells
# T1 sequence (O43614 1-444): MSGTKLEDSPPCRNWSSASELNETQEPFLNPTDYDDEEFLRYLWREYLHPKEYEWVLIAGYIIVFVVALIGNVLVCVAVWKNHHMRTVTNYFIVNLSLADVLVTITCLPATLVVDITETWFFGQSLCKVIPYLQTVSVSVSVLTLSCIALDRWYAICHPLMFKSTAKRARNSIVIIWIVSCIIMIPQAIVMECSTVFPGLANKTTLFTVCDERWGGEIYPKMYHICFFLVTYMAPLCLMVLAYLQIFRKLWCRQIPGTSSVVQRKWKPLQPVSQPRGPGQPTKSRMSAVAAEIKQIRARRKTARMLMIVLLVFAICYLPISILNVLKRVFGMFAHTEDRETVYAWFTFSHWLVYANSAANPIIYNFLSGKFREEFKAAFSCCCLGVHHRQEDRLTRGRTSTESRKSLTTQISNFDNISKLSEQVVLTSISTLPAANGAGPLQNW
# Assay: Measurement of orexin type 2 receptor agonist activity (calcium indicator fluorescence, CHO cells forcibly expressing human OX2 receptor)
# Format: cell-based
# Settings: compound at 3 μM; 0% = DMSO, 100% = orexin A (human) 10 nM
# Outline: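 CHO-dhfr cells stably expressing human OX2R, loaded with Fluo-4 AM (30 min 37 °C, then 30 min RT), then given test compound. Calcium fluorescence read by FDSS over ~2 min. Activity (%) scaled from DMSO (0%) to 10 nM final orexin A (100%).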
row,"OX2R agonist activity (3 μM, %) [%]",SMILES
1,97,"CCS(=O)(=O)N[C@@H]1[C@H](Cc2cccc(-c3ccccc3)c2F)N(C(=O)C(C)C)CC1(F)F [Example 106, N-[(2S,3R)-4,4-difluoro-2-[(2-fluoro[1,1′-biphenyl]-3-yl)methyl]-1-(2-methylpropanoyl)pyrrolidin-3-yl]ethanesulfonamide]"
2,88,"CS(=O)(=O)N[C@@H]1[C@H](Cc2cccc(-c3cccc(F)c3F)c2F)N(C(=O)C2CC(F)C2)CC1(F)F (stereo partly drawn) [Example 435, N-{(2S,3R)-4,4-difluoro-1-(3-fluorocyclobutane-1-carbonyl)-2-[(2,2′,3′-trifluoro[1,1′-biphenyl]-3-yl)methyl]pyrrolidin-3-yl}methanesulfonamide]"
3,89,"O=C(C1CCO1)N1CC(F)(F)[C@H](NS(=O)(=O)C2CC2)[C@@H]1Cc1cccc(-c2ccccc2)c1F (stereo partly drawn) [Example 124, N-[(2S,3R)-4,4-difluoro-2-[(2-fluoro[1,1′-biphenyl]-3-yl)methyl]-1-(oxetane-2-carbonyl)pyrrolidin-3-yl]cyclopropanesulfonamide]"
4,103,"CCS(=O)(=O)N[C@@H]1[C@H](Cc2cccc(-c3ccc(F)c(F)c3F)c2F)N(C(=O)C2CCO2)CC1(F)F (stereo partly drawn) [Example 470, N-{(2S,3R)-4,4-difluoro-1-(oxetane-2-carbonyl)-2-[(2,2′,3′,4′-tetrafluoro[1,1′-biphenyl]-3-yl)methyl]pyrrolidin-3-yl}ethanesulfonamide]"
5,100,"CCS(=O)(=O)N[C@@H]1[C@H](Cc2cccc(-c3cc(F)c(F)c(F)c3)c2F)N(C(=O)C2CCO2)CC1(F)F (stereo partly drawn) [Example 475, N-{(2S,3R)-4,4-difluoro-1-(oxetane-2-carbonyl)-2-[(2,3′,4′,5′-tetrafluoro[1,1′-biphenyl]-3-yl)methyl]pyrrolidin-3-yl}ethanesulfonamide]"
6,93,"CCS(=O)(=O)N[C@@H]1[C@H](Cc2cccc(-c3cccc(OC(F)F)c3)c2F)N(C(=O)C2CC2)CC1(F)F [Example 550, N-[(2S,3R)-1-(cyclopropanecarbonyl)-2-{[3′-(difluoromethoxy)-2-fluoro[1,1′-biphenyl]-3-yl]methyl}-4,4-difluoropyrrolidin-3-yl]ethanesulfonamide]"
7,96,"Cc1cc(F)cc(-c2cccc(C[C@H]3[C@@H](NS(=O)(=O)N(C)C)C(F)(F)CN3C(=O)N3CCC3)c2F)c1 [Example 546, N′-{(2S,3R)-1-(azetidine-1-carbonyl)-2-[(2,3′-difluoro-5′-methyl[1,1′-biphenyl]-3-yl)methyl]-4,4-difluoropyrrolidin-3-yl}-N,N-dimethylsulfuric diamide]"
8,85,"CCS(=O)(=O)N[C@@H]1[C@H](Cc2cccc(-c3cccc(C)c3)c2F)N(C(=O)C2(O)CCC2)CC1(F)F [Example 275, N-[(2S,3R)-4,4-difluoro-2-[(2-fluoro-3′-methyl[1,1′-biphenyl]-3-yl)methyl]-1-(1-hydroxycyclobutane-1-carbonyl)pyrrolidin-3-yl]ethanesulfonamide]"
9,90,"CCS(=O)(=O)N[C@H]1[C@@H](F)CN(C(=O)C2CCO2)[C@H]1Cc1cccc(-c2cccc(Cl)c2F)c1F (stereo partly drawn) [Example 423, N-[(2S,3R,4S)-2-[(3′-chloro-2,2′-difluoro[1,1′-biphenyl]-3-yl)methyl]-4-fluoro-1-(oxetane-2-carbonyl)pyrrolidin-3-yl]ethanesulfonamide]"
10,89,"CCS(=O)(=O)N[C@@H]1[C@H](Cc2cccc(-c3cccc(F)c3F)c2F)N(C(=O)C2CC2)CC1(F)F [Example 204, N-{(2S,3R)-1-(cyclopropanecarbonyl)-4,4-difluoro-2-[(2,2′,3′-trifluoro[1,1′-biphenyl]-3-yl)methyl]pyrrolidin-3-yl}ethanesulfonamide]"
11,94,"CC(C)(O)C(=O)N1C[C@H](F)[C@H](NS(=O)(=O)C2CC2)[C@@H]1Cc1cccc(-c2cccc(F)c2F)c1F [Example 371, N-{(2S,3R,4S)-4-fluoro-1-(2-hydroxy-2-methylpropanoyl)-2-[(2,2′,3′-trifluoro[1,1′-biphenyl]-3-yl)methyl]pyrrolidin-3-yl}cyclopropanesulfonamide]"
12,106,"CCS(=O)(=O)N[C@@H]1[C@H](Cc2cccc(-c3cccc(C)c3)c2F)N(C(=O)C(C)(C)O)CC1(F)F [Example 465, N-[(2S,3R)-4,4-difluoro-2-[(2-fluoro-3′-methyl[1,1′-biphenyl]-3-yl)methyl]-1-(2-hydroxy-2-methylpropanoyl)pyrrolidin-3-yl]ethanesulfonamide]"
13,94,"CCS(=O)(=O)N[C@@H]1[C@H](Cc2cccc(-c3cccc(OC(F)F)c3)c2F)N(C(=O)C2(O)CCC2)CC1(F)F [Example 552, N-[(2S,3R)-2-{[3′-(difluoromethoxy)-2-fluoro[1,1′-biphenyl]-3-yl]methyl}-4,4-difluoro-1-(1-hydroxycyclobutane-1-carbonyl)pyrrolidin-3-yl]ethanesulfonamide]"
14,88,"CCS(=O)(=O)N[C@@H]1[C@H](Cc2cccc(-c3cccc(C(F)F)c3)c2F)N(C(=O)C2CC(F)C2)CC1(F)F (stereo partly drawn) [Example 505, N-[(2S,3R)-2-{[3′-(difluoromethyl)-2-fluoro[1,1′-biphenyl]-3-yl]methyl}-4,4-difluoro-1-(3-fluorocyclobutane-1-carbonyl)pyrrolidin-3-yl]ethanesulfonamide]"
15,99,"Cc1cccc(-c2cccc(C[C@H]3[C@@H](NS(=O)(=O)C4CC4)[C@@H](F)CN3C(=O)N3CCC3)c2F)c1 [Example 543, N-{(2S,3R,4S)-1-(azetidine-1-carbonyl)-4-fluoro-2-[(2-fluoro-3′-methyl[1,1′-biphenyl]-3-yl)methyl]pyrrolidin-3-yl}cyclopropanesulfonamide]"
16,100,"CCS(=O)(=O)N[C@@H]1[C@H](Cc2cccc(-c3cccc(F)c3)c2)N(C(=O)C2CCO2)CC1(F)F (stereo partly drawn) [Example 52, N-[(2S,3R)-4,4-difluoro-2-[(3′-fluoro[1,1′-biphenyl]-3-yl)methyl]-1-(oxetane-2-carbonyl)pyrrolidin-3-yl]ethanesulfonamide]"
17,83,"Cc1cc(F)cc(-c2cccc(C[C@H]3[C@@H](NS(=O)(=O)N(C)C)C(F)(F)CN3C(=O)N(C)C)c2F)c1 [Example 526, (2S,3R)-2-[(2,3′-difluoro-5′-methyl[1,1′-biphenyl]-3-yl)methyl]-3-[(dimethyslulfamoyl)amino]-4,4-difluoro-N,N-dimethylpyrrolidine-1-carboxamide]"
18,89,"O=C(C1CC1)N1C[C@H](F)[C@H](NS(=O)(=O)C2CC2)[C@@H]1Cc1cccc(-c2cccc(F)c2)c1F [Example 372, N-{(2S,3R,4S)-1-(cyclopropanecarbonyl)-2-[(2,3′-difluoro[1,1′-biphenyl]-3-yl)methyl]-4-fluoropyrrolidin-3-yl}cycloproapnesulfonamide]"
19,92,"CCS(=O)(=O)N[C@H]1[C@@H](F)CN(C(=O)C(C)(C)O)[C@H]1Cc1cccc(-c2cc(F)cc(Cl)c2)c1F [Example 345, N-[(2S,3R,4S)-2-[(3′-chloro-2,5′-difluoro[1,1′-biphenyl]-3-yl)methyl]-4-fluoro-1-(2-hydroxy-2-methylpropanoyl)pyrrolidin-3-yl]ethanesulfonamide]"
20,102,"CCS(=O)(=O)N[C@H]1[C@@H](F)CN(C(=O)C2CCO2)[C@H]1Cc1cccc(-c2cccc(C(F)F)c2)c1F (stereo partly drawn) [Example 535, N-[(2S,3R,4S)-2-{[3′-(difluoromethyl)-2-fluoro[1,1′-biphenyl]-3-yl]methyl}-4-fluoro-1-(oxetane-2-carbonyl)pyrrolidin-3-yl]ethanesulfonamide]"
21,98,"CCS(=O)(=O)N[C@@H]1[C@H](Cc2cccc(-c3cc(C)cc(F)c3)c2F)N(C(=O)N2CCC2)CC1(F)F [Example 444, N-{(2S,3R)-1-(azetidine-1-carbonyl)-2-[(2,3′-difluoro-5′-methyl[1,1′-biphenyl]-3-yl)methyl]-4,4-difluoropyrrolidin-3-yl}ethanesulfonamide]"
22,91,"O=C(C1CCO1)N1C[C@H](F)[C@H](NS(=O)(=O)C2CC2)[C@@H]1Cc1cccc(-c2cccc(Cl)c2)c1F (stereo partly drawn) [Example 497, N-[(2S,3R,4S)-2-[(3′-chloro-2-fluoro[1,1′-biphenyl]-3-yl)methyl]-4-fluoro-1-(oxetane-2-carbonyl)pyrrolidin-3-yl]cyclopropanesulfonamide]"
23,98,"O=C(N1CCC1)N1CC(F)(F)[C@H](NS(=O)(=O)C2CC2)[C@@H]1Cc1cccc(-c2cccc(F)c2)c1F [Example 534, N-{(2S,3R)-1-(azetidine-1-carbonyl)-2-[(2,3′-difluoro[1,1′-biphenyl]-3-yl)methyl]-4,4-difluoropyrrolidin-3-yl}cyclopropanesulfonamide]"
24,85,"CS(=O)(=O)N[C@@H]1[C@H](Cc2cccc(-c3cccc(F)c3)c2F)N(C(=O)N2CCC2)CC1(F)F [Example 11, N-{(2S,3R)-1-(azetidine-1-carbonyl)-2-[(2,3′-difluoro[1,1′-biphenyl]-3-yl)methyl]-4,4-difluoropyrrolidin-3-yl}methanesulfonamide]"
